Target: GABAa receptor
Experiment: GABAa receptor binding assay: inhibition of 3H-RO15-1788 (3H-Flumazenil) binding to rat cortical tissue
Details: 0.5 nM 3H-RO15-1788, 30 min at 4° C., nonspecific binding with 1.0 μM diazepam
Method: The pharmaceutical utility of compounds of this invention are indicated by the following assay for GABAa receptor activity.
Assays are carried out as described in Thomas and Tallman (J. Bio. Chem. 156: 9838-9842, J. Neurosci. 3:433-440, 1983). Rat cortical tissue is dissected and homogenized in 25 volumes (w/v) of 0.05M Tris HCl buffer (pH 7.4 at 4° C.). The tissue homogenate is centrifuged in the cold (4°) at 20,000×g for 20'. The supernatant is decanted and the pellet is rehomogenized in the same volume of buffer and again centrifuged at 20,000×g. The supernatant is decanted and the pellet is frozen at -20° C. overnight. The pellet is then thawed and rehomogenized in 25 volume (original wt/vol) of buffer and the procedure is carried out twice. The pellet is finally resuspended in 50 volumes (w/vol of 0.05M Tris HCl buffer (pH 7.4 at […]).
Incubations contain 100 μl of tissue homogenate, 100 μl of radioligand 0.5 nM (^3 H-RO15-1788 [^3 H-Flumazenil] specific activity 80 Ci/mmol), drug or blocker and buffer to a total volume of 500 μl. Incubations are carried for 30 min at 4° C. then are rapidly filtered through GFB filters to separate free and bound ligand. Filters are washed twice with fresh 0.05M Tris HCl buffer (pH 7.4 at 4° C.) and counted in a liquid scintillation counter. 1.0 μM diazepam is added to some tubes to determine nonspecific binding. Data are collected in triplicate determinations, averaged and % inhibition of total specific binding is calculated. Total Specific Binding=Total-Nonspecific. In some cases, the amounts of unlabeled drugs is varied and total displacement curves of binding are carried out. Data are converted to a form for the calculation of IC50 and Hill Coefficient (nH).

Structure (SMILES) | IC50 [nM]
COc1ccc(-c2cnc3[nH]c4ccccc4c3n2)c(F)c1 [Compound 12, 2-(2-Fluoro-4-methoxyphenyl)-5H-indolo[2,3-b]pyrazine] | 533
COc1ccc(-c2cnc3[nH]c4c(c3n2)CCCC4)c(F)c1 [Compound 11, 2-(2-Fluoro-4-methoxyphenyl)-6,7,8,9-tetrahydro-5H-indolo[2,3-b]pyrazine] | 29
COc1ccc(F)c(-c2cnc3[nH]c4c(c3n2)CCCC4)c1 [Compound 1, 2-(2-Fluoro-5-methoxyphenyl)-6,7,8,9-tetrahydro-5H-indolo[2,3-b]pyrazine] | 200
Fc1ccccc1-c1cnc2[nH]c3c(c2n1)CCCC3 [Compound 5, 2-(2-Fluorophenyl)-6,7,8,9-tetrahydro-5H-indolo[2,3-b]pyrazine] | 45

Test system: benzodiazepine binding site
Experiment: not given
Details: cited from earlier work

Structure (SMILES) | block of GABA-agonist enhancement of benzodiazepine binding
CN1CCc2cc3c(cc2[C@H]1[C@@H]1OC(=O)c2c1ccc1c2OCO1)OCO3 [(+) bicuculline] | blocked
CN1CCc2cc3c(cc2[C@@H]1[C@H]1OC(=O)c2c1ccc1c2OCO1)OCO3 [(-) bicuculline] | much less active
